Data: US6900338B1, “Scavenger compounds” (Yissum Research Development Company of the Hebrew …, priority 1998, dated 2005)

Assays:
[1] = tested on: vascular (aortic) guanylyl cyclase activity; assay: Prevention of nitrate tolerance: aortic cGMP after continuous NTG infusion, with or without the compounds; format: in vivo, rat; settings: for tolerance development to NTG / NO-donors (result in words): co-administration with nitrates
Protocol: (§1) • a) Acute effects: Rats (Spargue-Dawely) weighing 300-400 g were treated with an intravenous (i.v.) bolus dose of 2 mg nitroglycerin (NTG) before and after pre-treatment with the compounds (50 mg/kg) administered intraperitoneally. Compounds 1 and 2 from FIG. 1, compounds 9 and 10 from FIG. 2, compounds 17 and 18 from FIG. 3, compounds 25 a nd 26 from FIG. 4 were dissolved in a mixture of ethanol:propylene glycol:water (1:1:1) and administered in 1 ml intraperitoneally one hour before NTG administration. One minute after the NTG administration, the rats were sacrificed by decapitation and the aorta was removed quickly, immersed in a phosphate buffer solution containing 20 mM EDTA and immediately frozen in liquid nitrogen add stored at −70° until analyzed. Next day, the tissue were analyzed for their cGMP content. After thawing, tissue were weighed and homogenized in EDTA-phosphate buffer, centrifuged and the super collected into another tube. The pellet was washed with 1 ml buffer, vortex-mixed, centrifuged and the supernatant added to the second tube. 2 ml of acetonitrile were added to the tube containing the combined extracts and the tube vortex-mixed, centrifuged and the supernatant collected to another clean tube. The aqueous-acetonitrile solution in this latter tube was evaporated to dryness and the reside dissolved in assay buffer. The cGMP content of the solution was determined using a radioimmunoassay (RIA-Amersham) as previously reported by us.
Similar significant increases were also obtained when pre-treatment was performed with other compounds (see above). • b) Prevention: Rat were administered a continuos infusion of NTG known to induce tolerance with or without concomitant administration of the compounds (the same tested for the acute effects). The compounds were administered either in continuos i.v. infusion or intraperitoneally in 4 separated doses (q 6 hours). The effects on vascular (aortic) guanylyl cyclase activity was then evaluated as described above for control rats.

[2] = tested on: tissue guanylyl cyclase response to nitrates (aortic cGMP); assay: Acute effects: aortic cGMP after NTG bolus, with or without pre-treatment with the compounds; format: in vivo, rat
Protocol: as §1, with “The aqueous-acetonitrile solution in this latter tube was evaporated to dryness and the reside dissolved in assay buffer.” left out, “us. […]” for “us.”

Molecule	tolerance development to NTG / NO-donors (result in words) [1]	cGMP ([2]; NTG alone, i.v. bolus 2 mg, aorta removed one minute after NTG)	cGMP ([1]; NTG-pretreatment: continuous NTG infusion known to induce tolerance, no compound, aorta)	tissue guanylyl cyclase response to nitrates (result in words) ([2]; pre-treatment or co-administration with nitrate / NO donor)
lipoyl lipoate	prevents/retards tolerance development	–	–	–
O=[N+]([O-])OCC(CO[N+](=O)[O-])O[N+](=O)[O-] [NTG, nitroglycerin]	–	175 ± 13 pmol/g tissue	64 ± 9 pmol/g tissue	–
O=C(O)CCCCC1CCSS1 (centres unmarked) [LA, 1,2-dithiolane-3-valeric acid]	retards tolerance development	–	–	enhances its activity
